Results reported in PubChem BioAssay (NCI).
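96-well plates; 48 h exposure; 5 concentrations. Endpoints by linear interpolation between flanking doses. Not reached: highest tested concentration assigned. The concentration for full growth arrest is given as TGI.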

Assays:
Assay in all cases: NCI tumour cell line growth inhibition, 48 h
DMS 273 small cell lung = system: DMS 273 small cell lung
OVCAR-8 ovarian = system: OVCAR-8 ovarian
SNB-19 CNS = system: SNB-19 CNS
OVCAR-3 ovarian = system: OVCAR-3 ovarian
SNB-75 CNS = system: SNB-75 CNS
SK-MEL-5 melanoma = system: SK-MEL-5 melanoma
DMS 114 small cell lung = system: DMS 114 small cell lung
HOP-92 NSCLC = system: HOP-92 NSCLC
EKVX NSCLC = system: EKVX NSCLC
LXFL 529 NSCLC = system: LXFL 529 NSCLC
NCI-H23 lung = system: NCI-H23 lung
RXF 393 renal = system: RXF 393 renal
K-562 leukemia = system: K-562 leukemia
M14 melanoma = system: M14 melanoma
RPMI-8226 leukemia = system: RPMI-8226 leukemia
SK-MEL-2 melanoma = system: SK-MEL-2 melanoma
LOX IMVI melanoma = system: LOX IMVI melanoma
TK-10 renal = system: TK-10 renal
KM20L2 colon = system: KM20L2 colon
UO-31 renal = system: UO-31 renal
SK-MEL-28 melanoma = system: SK-MEL-28 melanoma
UACC-62 melanoma = system: UACC-62 melanoma
HCT-116 colon = system: HCT-116 colon
ACHN renal = system: ACHN renal
CAKI-1 renal = system: CAKI-1 renal
NCI-H460 lung = system: NCI-H460 lung
SK-OV-3 ovarian = system: SK-OV-3 ovarian
U251 CNS = system: U251 CNS
SW-620 colon = system: SW-620 colon
A498 renal = system: A498 renal
DLD-1 colon = system: DLD-1 colon
COLO 205 colon = system: COLO 205 colon
M19-MEL melanoma = system: M19-MEL melanoma
MOLT-4 leukemia = system: MOLT-4 leukemia
NCI-H522 lung = system: NCI-H522 lung
IGROV1 ovarian = system: IGROV1 ovarian
CCRF-CEM leukemia = system: CCRF-CEM leukemia
SF-268 CNS = system: SF-268 CNS
OVCAR-4 ovarian = system: OVCAR-4 ovarian
UACC-257 melanoma = system: UACC-257 melanoma
MALME-3M melanoma = system: MALME-3M melanoma
KM12 colon = system: KM12 colon
HCC-2998 colon = system: HCC-2998 colon
SF-539 CNS = system: SF-539 CNS
786-0 renal = system: 786-0 renal
HCT-15 colon = system: HCT-15 colon
SNB-78 CNS = system: SNB-78 CNS
A549 NSCLC = system: A549 NSCLC
OVCAR-5 ovarian = system: OVCAR-5 ovarian
HOP-62 NSCLC = system: HOP-62 NSCLC
PC-3 prostate = system: PC-3 prostate
MDA-MB-435 = system: MDA-MB-435
MCF7 breast = system: MCF7 breast
HT29 colon = system: HT29 colon
SF-295 CNS = system: SF-295 CNS
NCI-H226 lung = system: NCI-H226 lung
BT-549 breast = system: BT-549 breast
T-47D breast = system: T-47D breast
SN12C renal = system: SN12C renal
MDA-N = system: MDA-N
DU-145 prostate = system: DU-145 prostate
NCI/ADR-RES ovarian = system: NCI/ADR-RES ovarian
HS 578T breast = system: HS 578T breast
HL-60(TB) leukemia = system: HL-60(TB) leukemia
MDA-MB-231 breast = system: MDA-MB-231 breast
SR leukemia = system: SR leukemia

## CCOc1ccc(NC(=O)/C(Cc2nc3ccccc3[nH]c2=O)=N\O)cc1
DMS 273 small cell lung
  TGI: > 100 µM
OVCAR-8 ovarian
  TGI: > 100 µM
SNB-19 CNS
  TGI: > 100 µM
OVCAR-3 ovarian
  TGI: > 100 µM
SNB-75 CNS
  TGI: > 100 µM
SK-MEL-5 melanoma
  TGI: > 100 µM
DMS 114 small cell lung
  TGI: > 100 µM
HOP-92 NSCLC
  TGI: > 100 µM
EKVX NSCLC
  TGI: > 100 µM
LXFL 529 NSCLC
  TGI: > 100 µM
NCI-H23 lung
  TGI: > 100 µM
RXF 393 renal
  TGI: > 100 µM
K-562 leukemia
  TGI: > 100 µM
M14 melanoma
  TGI: > 100 µM
RPMI-8226 leukemia
  TGI: > 100 µM
SK-MEL-2 melanoma
  TGI: > 100 µM
LOX IMVI melanoma
  TGI: > 100 µM
TK-10 renal
  TGI: > 100 µM
KM20L2 colon
  TGI: > 100 µM
UO-31 renal
  TGI: > 100 µM
SK-MEL-28 melanoma
  TGI: > 100 µM
UACC-62 melanoma
  TGI: > 100 µM
HCT-116 colon
  TGI: > 100 µM
ACHN renal
  TGI: > 100 µM
CAKI-1 renal
  TGI: > 100 µM
NCI-H460 lung
  TGI: > 100 µM
SK-OV-3 ovarian
  TGI: > 100 µM
U251 CNS
  TGI: > 100 µM
SW-620 colon
  TGI: > 100 µM
A498 renal
  TGI: > 100 µM
DLD-1 colon
  TGI: > 100 µM
COLO 205 colon
  TGI: > 100 µM
M19-MEL melanoma
  TGI: > 100 µM
MOLT-4 leukemia
  TGI: > 100 µM
NCI-H522 lung
  TGI: > 100 µM
IGROV1 ovarian
  TGI: > 100 µM
CCRF-CEM leukemia
  TGI: > 100 µM
SF-268 CNS
  TGI: > 100 µM
OVCAR-4 ovarian
  TGI: > 100 µM
UACC-257 melanoma
  TGI: > 100 µM
MALME-3M melanoma
  TGI: > 100 µM
KM12 colon
  TGI: > 100 µM
HCC-2998 colon
  TGI: > 100 µM
SF-539 CNS
  TGI: > 100 µM
786-0 renal
  TGI: > 100 µM
HCT-15 colon
  TGI: > 100 µM
SNB-78 CNS
  TGI: > 100 µM
A549 NSCLC
  TGI: > 100 µM
OVCAR-5 ovarian
  TGI: > 100 µM
HOP-62 NSCLC
  TGI: > 100 µM

## CCCCCCCCCCCCCCC(C(=O)[O-])[n+]1ccccc1 (stereo not drawn)
OVCAR-8 ovarian
  TGI: > 100 µM
PC-3 prostate
  TGI: 77.6 µM
SNB-19 CNS
  TGI: > 100 µM
OVCAR-3 ovarian
  TGI: > 100 µM
SNB-75 CNS
  TGI: > 100 µM
SK-MEL-5 melanoma
  TGI: > 100 µM
HOP-92 NSCLC
  TGI: > 100 µM
EKVX NSCLC
  TGI: > 100 µM
MDA-MB-435
  TGI: > 100 µM
MCF7 breast
  TGI: 50.9 µM
HT29 colon
  TGI: > 100 µM
NCI-H23 lung
  TGI: > 100 µM
SF-295 CNS
  TGI: > 100 µM
RXF 393 renal
  TGI: 74.7 µM
K-562 leukemia
  TGI: > 100 µM
M14 melanoma
  TGI: > 100 µM
NCI-H226 lung
  TGI: > 100 µM
BT-549 breast
  TGI: > 100 µM
RPMI-8226 leukemia
  TGI: > 100 µM
SK-MEL-2 melanoma
  TGI: > 100 µM
LOX IMVI melanoma
  TGI: > 100 µM
TK-10 renal
  TGI: 28.8 µM
UO-31 renal
  TGI: > 100 µM
SK-MEL-28 melanoma
  TGI: > 100 µM
T-47D breast
  TGI: > 100 µM
UACC-62 melanoma
  TGI: > 100 µM
HCT-116 colon
  TGI: > 100 µM
ACHN renal
  TGI: > 100 µM
CAKI-1 renal
  TGI: > 100 µM
NCI-H460 lung
  TGI: > 100 µM
SK-OV-3 ovarian
  TGI: > 100 µM
U251 CNS
  TGI: > 100 µM
SW-620 colon
  TGI: > 100 µM
A498 renal
  TGI: > 100 µM
COLO 205 colon
  TGI: > 100 µM
SN12C renal
  TGI: > 100 µM
MOLT-4 leukemia
  TGI: > 100 µM
NCI-H522 lung
  TGI: > 100 µM
IGROV1 ovarian
  TGI: > 100 µM
CCRF-CEM leukemia
  TGI: > 100 µM
SF-268 CNS
  TGI: > 100 µM
MDA-N
  TGI: > 100 µM
OVCAR-4 ovarian
  TGI: > 100 µM
UACC-257 melanoma
  TGI: > 100 µM
DU-145 prostate
  TGI: > 100 µM
KM12 colon
  TGI: > 100 µM
NCI/ADR-RES ovarian
  TGI: > 100 µM
HCC-2998 colon
  TGI: > 100 µM
SF-539 CNS
  TGI: > 100 µM
786-0 renal
  TGI: > 100 µM
HCT-15 colon
  TGI: > 100 µM
HS 578T breast
  TGI: > 100 µM
HL-60(TB) leukemia
  TGI: > 100 µM
MDA-MB-231 breast
  TGI: > 100 µM
A549 NSCLC
  TGI: > 100 µM
SR leukemia
  TGI: > 100 µM
OVCAR-5 ovarian
  TGI: > 100 µM
HOP-62 NSCLC
  TGI: > 100 µM
